Data as given in US6410040B1, “Polymeric compounds and methods of formulating same” (Chemeq Limited, priority 1998, dated 2002).

Assays:
[1] = test system: Ps. aeruginosa; experiment: Minimal Kill Concentration Test; type: cell-based
Protocol: (§1) 2. Minimal Kill Concentration Test
(§2) Make serial 1 in 2 dilutions of the sample using sterile 0.85% saline. Add 0.1 mL of suspension of test organism to the dilution. Incubate at 37° C. for 24 hours. Subculture 1 mL from each tube into 10 mL sterile nutrient broth plus TWEEN 80; incubate at 37° C. for 24 hours.
(§3) If the Minimum Kill Concentrations of compounds A, B, and a mixture of A and B are a, b and m, respectively, then there is synergy (“S”) upon mixing A and B if
(§4) ie. S=(a+b)/m>1 for synergy

[2] = test system: S. aureus; experiment: Minimal Kill Concentration Test; type: cell-based
Protocol: as §1, §2, §3, §4

[3] = Migration of sunscreen agents across a membrane model for skin; type: in vitro ADME; conditions: solution in ethanol
Protocol: The effects of the presence of poly(2-propenal, 2-propenoic acid) on the migration of various agents across a model for skin were studied as follows. Results are shown in Table 8: In a special apparatus, the samples were applied to one side of a 0.45 micron cellulose acetate membrane in contact with, on the other side, a stirred solution of ethanol. “After” 1.5 hours, the spectrum of the “ethanol” was compared with the “Before” solution of sample in the same solvent: […]

[4] = test system: A. niger; experiment: Minimal Kill Concentration Test; type: cell-based; conditions: Experiment 1
Protocol: as §1, §2, §3, §4

[5] = test system: B. cereus; experiment: Minimal Kill Concentration Test; type: cell-based; conditions: Experiment 1
Protocol: as §1, §2, §3, §4

[6] = test system: P. vulgaris; experiment: Minimal Kill Concentration Test; type: cell-based; conditions: Experiment 1
Protocol: as §1, §2, §3, §4

[7] = test system: C. albicans; experiment: Minimal Kill Concentration Test; type: cell-based; conditions: Experiment 1
Protocol: as §1, §2, §3, §4

[8] = test system: E. coli; experiment: Minimal Kill Concentration Test; type: cell-based; conditions: Experiment 1
Protocol: as §1, §2, §3, §4

Compound: Oc1ccccc1-c1ccccc1.[Na] [phenol, orthophenylphenol, sodium salt]
- Minimum Kill Concentration Ps. aeruginosa ([1]; Experiment 2): >10000 p.p.m.
- Minimum Kill Concentration S. aureus ([2]; Experiment 2): 20 p.p.m.

Compound: CCCCC(CC)COC(=O)c1ccc(N(C)C)cc1 (stereo not shown) [octyl dimethyl p-aminobenzoate]
- max (UV spectrum), Before [3]: max = 315 nm

Compound: CCCCC(CC)COC(=O)C=Cc1ccc(OC)cc1 (stereo not shown) [octyl methoxy cinnimate]
- max (UV spectrum), Before [3]: max = 310 nm

Compound: O=CCCCC=O [glutaraldehyde]
- Minimum Kill Concentration Ps. aeruginosa ([1]; Experiment 2): 155 p.p.m.
- Minimum Kill Concentration S. aureus ([2]; Experiment 2): 80 p.p.m.

Compound: O=C(O)CN(CCN(CC(=O)O)CC(=O)O)CC(=O)O [EDTA, ethylene diamine tetra acetic acid]
- Minimum Kill Concentration Ps. aeruginosa ([1]; Experiment 1): 625 p.p.m.
- Minimum Kill Concentration A. niger [4]: 1250 p.p.m.
- Minimum Kill Concentration B. cereus [5]: 80 p.p.m.
- Minimum Kill Concentration S. aureus ([2]; Experiment 1): 625 p.p.m.
- Minimum Kill Concentration P. vulgaris [6]: 155 p.p.m.
- Minimum Kill Concentration C. albicans [7]: 155 p.p.m.
- Minimum Kill Concentration E. coli [8]: 80 p.p.m.
